# Marks after values point to notes of the source that are not given here.
# Tests used:
# Donor 4 COP T-Cell Lines = experiment: ATP proliferation assay (CellTiter Glo), Donor 4 COP T-cell lines, incl. reactivity to non-canonical GA peptides; type: cell-based, human
# Donor 3 GMA T-Cell Lines = experiment: ATP proliferation assay (CellTiter Glo), Donor 3 GMA T-cell lines, incl. reactivity to non-canonical GA peptides; type: cell-based, human; details: for Mean, ATP proliferation assay: Day 40
substance,measurement,setting,value
glatiramer acetate [COP],"COP 10 μg/mL, ATP proliferation assay","Donor 4 COP T-Cell Lines; T-cell line 205-1B4, Day 13",84937 RLU
same,"COP 10 μg/mL, ATP proliferation assay","Donor 4 COP T-Cell Lines; T-cell line 205-1B7, Day 13",74147 RLU
same,"Reactivity (proliferation), Mean","Donor 4 COP T-Cell Lines; T-cell line 205-1C4, 1 μg/mL antigen, No Antigen 4464",8859 RLU
same,"Reactivity (proliferation), Mean","Donor 4 COP T-Cell Lines; T-cell line 205-1C4, 3 μg/mL antigen, No Antigen 4464",26612 RLU
same,"Reactivity (proliferation), Mean","Donor 4 COP T-Cell Lines; T-cell line 205-1C4, 10 μg/mL antigen, No Antigen 4464",41287 RLU
same,"COP 10 μg/mL, ATP proliferation assay","Donor 4 COP T-Cell Lines; T-cell line 205-1C4, Day 13",69861 RLU
same,"COP 10 μg/mL, ATP proliferation assay","Donor 4 COP T-Cell Lines; T-cell line 205-1D1, Day 13",63419 RLU
same,"COP 10 μg/mL, ATP proliferation assay","Donor 4 COP T-Cell Lines; T-cell line 205-1E1, Day 13",44198 RLU
same,"COP 10 μg/mL, ATP proliferation assay","Donor 4 COP T-Cell Lines; T-cell line 205-1F2, Day 13",71947 RLU
same,"COP 10 μg/mL, ATP proliferation assay","Donor 4 COP T-Cell Lines; T-cell line 205-1F4, Day 13",33143 RLU
same,"Proliferation (luminescent ATP assay), Mean","Donor 4 COP T-Cell Lines; T-cell line 205-1F4, Day 71, 1 μg/mL antigen, autologous B-LCL",47254
same,"Proliferation (luminescent ATP assay), Mean","Donor 4 COP T-Cell Lines; T-cell line 205-1F4, Day 71, 3 μg/mL antigen, autologous B-LCL",169021
same,"Proliferation (luminescent ATP assay), Mean","Donor 4 COP T-Cell Lines; T-cell line 205-1F4, Day 71, 10 μg/mL antigen, autologous B-LCL",213196
same,"COP 10 μg/mL, ATP proliferation assay","Donor 4 COP T-Cell Lines; T-cell line 205-1G3, Day 13",54211 RLU
same,"COP 10 μg/mL, ATP proliferation assay","Donor 4 COP T-Cell Lines; T-cell line 205-1H1, Day 13",29824 RLU
same,"Reactivity (proliferation), Mean","Donor 4 COP T-Cell Lines; T-cell line 205-1H3, 1 μg/mL antigen, 0 μg/mL 4121.0",32122.0
same,"Reactivity (proliferation), Mean","Donor 4 COP T-Cell Lines; T-cell line 205-1H3, 3 μg/mL antigen, 0 μg/mL 4121.0",49585.0
same,"Reactivity (proliferation), Mean","Donor 4 COP T-Cell Lines; T-cell line 205-1H3, 10 μg/mL antigen, 0 μg/mL 4121.0",60878.3
same,"COP 10 μg/mL, ATP proliferation assay","Donor 4 COP T-Cell Lines; T-cell line 205-1H3, Day 13",55518 RLU
same,"COP 10 μg/mL, ATP proliferation assay","Donor 4 COP T-Cell Lines; T-cell line 205-1H4, Day 13",50307 RLU
same,"Reactivity (proliferation), Mean","Donor 4 COP T-Cell Lines; T-cell line 205-1H5, 1 μg/mL antigen, No Antigen 749",2375 RLU
same,"Reactivity (proliferation), Mean","Donor 4 COP T-Cell Lines; T-cell line 205-1H5, 3 μg/mL antigen, No Antigen 749",7182 RLU
same,"Reactivity (proliferation), Mean","Donor 4 COP T-Cell Lines; T-cell line 205-1H5, 10 μg/mL antigen, No Antigen 749",8580 RLU
same,"COP 10 μg/mL, ATP proliferation assay","Donor 4 COP T-Cell Lines; T-cell line 205-1H5, Day 13",57608 RLU
same,"Proliferation (luminescent ATP assay), Mean","Donor 4 COP T-Cell Lines; T-cell line 205-1H7, 1μg/mL antigen, after seven stimulations, 0 μg/mL 3382",13131 RLU
same,"Proliferation (luminescent ATP assay), Mean","Donor 4 COP T-Cell Lines; T-cell line 205-1H7, 10 μg/mL antigen, after seven stimulations, 0 μg/mL 3382",175652 RLU
same,"Proliferation (luminescent ATP assay), Mean","Donor 4 COP T-Cell Lines; T-cell line 205-1H7, 30 μg/mL antigen, after seven stimulations, 0 μg/mL 3382",190750 RLU
same,"COP 10 μg/mL, ATP proliferation assay","Donor 4 COP T-Cell Lines; T-cell line 205-1H7, Day 13",64436 RLU
same,"COP 10 μg/mL, ATP proliferation assay","Donor 4 COP T-Cell Lines; T-cell line 205-1H9, Day 13",52972 RLU
same,"Reactivity (proliferation), Mean","Donor 4 COP T-Cell Lines; T-cell line 205-1H11, 1 μg/mL antigen, 0 μg/mL 6941",12243 RLU
same,"Reactivity (proliferation), Mean","Donor 4 COP T-Cell Lines; T-cell line 205-1H11, 10 μg/mL antigen, 0 μg/mL 6941",147464 RLU
same,"Reactivity (proliferation), Mean","Donor 4 COP T-Cell Lines; T-cell line 205-1H11, 30 μg/mL antigen, 0 μg/mL 6941",112673 RLU
same,"COP 10 μg/mL, ATP proliferation assay","Donor 4 COP T-Cell Lines; T-cell line 205-1H11, Day 13",54232 RLU
same,ATP ratio (COP stimulated:unstimulated control),"Donor 4 COP T-Cell Lines; fifteen Donor 4 wells, Day 13, 10 μg/mL (Table 26)",two or greater
same,response in proliferation assay,"Donor 3 GMA T-Cell Lines; 165-B5G, 165-D8G, 165-E7G, 165-F5G, Day 56, 0, 1, 5, 10, 100 μg/mL, GMA and COP responses comparable",responded well
same,"Proliferation (luminescent ATP assay), Mean","Donor 3 GMA T-Cell Lines; T-cell line 165-05G, 1 μg/mL antigen, Day 50 of culturing, No Antigen Value 2149",6791 RLU
same,"Proliferation (luminescent ATP assay), Mean","Donor 3 GMA T-Cell Lines; T-cell line 165-05G, 3 μg/mL antigen, Day 50 of culturing, No Antigen Value 2149",42584 RLU
same,"Proliferation (luminescent ATP assay), Mean","Donor 3 GMA T-Cell Lines; T-cell line 165-05G, 10 μg/mL antigen, Day 50 of culturing, No Antigen Value 2149",56893 RLU
same,"Proliferation (luminescent ATP assay), Mean","Donor 3 GMA T-Cell Lines; T-cell line 165-05G, 30 μg/mL antigen, Day 50 of culturing, No Antigen Value 2149",55001 RLU
same,"Mean, ATP proliferation assay","Donor 3 GMA T-Cell Lines; T-cell line 165-B2G, 1 μg/mL",3779
same,"Mean, ATP proliferation assay","Donor 3 GMA T-Cell Lines; T-cell line 165-B2G, 3 μg/mL",11983
same,"Mean, ATP proliferation assay","Donor 3 GMA T-Cell Lines; T-cell line 165-B2G, line COP 10 μg/mL, footnote: well contained 3 μg/mL COP",10980*
same,"Proliferation (luminescent ATP assay), Mean","Donor 3 GMA T-Cell Lines; T-cell line 165-B5G, 1 μg/mL antigen, Day 81 of culturing, No Antigen Value 2432",6275 RLU
same,"Mean, ATP proliferation assay","Donor 3 GMA T-Cell Lines; T-cell line 165-B5G, 1 μg/mL",3672
same,"Proliferation (luminescent ATP assay), Mean","Donor 3 GMA T-Cell Lines; T-cell line 165-B5G, 3 μg/mL antigen, Day 81 of culturing, No Antigen Value 2432",7499 RLU
same,"Mean, ATP proliferation assay","Donor 3 GMA T-Cell Lines; T-cell line 165-B5G, 3 μg/mL",3673
same,"Proliferation (luminescent ATP assay), Mean","Donor 3 GMA T-Cell Lines; T-cell line 165-B5G, 10 μg/mL antigen, Day 81 of culturing, No Antigen Value 2432",10914 RLU
same,"Mean, ATP proliferation assay","Donor 3 GMA T-Cell Lines; T-cell line 165-B5G, 10 μg/mL",14282
same,"Proliferation (luminescent ATP assay), Mean","Donor 3 GMA T-Cell Lines; T-cell line 165-B5G, 30 μg/mL antigen, Day 81 of culturing, No Antigen Value 2432",13974 RLU
same,"Mean, ATP proliferation assay","Donor 3 GMA T-Cell Lines; T-cell line 165-C4G, 1 μg/mL",3143
